Legend:
Format in all cases: cell-based
galectin-1 = assay: Western blot analysis of galectin-1 expression in ES-2 cells; details: western blot (FIG. 2)
Method: Samples were respectively subjected to SDS-PAGE, transferred to PVDF membranes. These blots were blocked with 5% nonfat milk powder in TBS-0.1% Tween-20 for 30 minutes, followed by incubation with primary antibodies at 4° C. overnight and then horseradish peroxidase-conjugated secondary antibodies (Amersham Biosciences, Piscataway). Imaging of bands was performed using Pierce ECL Western Blotting Substrate (Thermo Fisher Scientific) and ImageQuant LAS-4000 (GE Healthcare).
In this example, the effects of TN-GL-01 composition on the expression of galectin-1 in ERK (extracellular-signal-regulated kinase) pathway was investigated via western blot analysis. […] Thus, it was concluded that the present TN-GL-01 composition exerted its function through suppression of galectin-1.

[1] = tested on: ovarian cancer cells (i.e., ES-2 cells); assay: MTT assay of cell activity, ES-2 cells; details: treated at least 48 hrs
Method: Ovarian cancer cell ES-2 and myeloma cell line ARH-77 were used in the present disclosure. Cells was cultured and maintained in Dulbecco's modified Eagle media (DMEM) supplemented with 10% fetal bovine serum (FBS), 100 IU/ml penicillin, […] streptomycin, 2 mM glutamine, non-essential amino acids and sodium pyruvate in 5% CO2 at 37° C. Cells were grown and maintained in Petri dishes (each was 10 cm in diameter) until they reached 80% confluence, and then were subject to cell passages. Briefly, cells were first washed with phosphate buffer solution (PBS, 3 ml) once, then treated with 0.05% Trypsin/0.025% EDTA solution (1 mL) for 5 min so that the attached cells become suspended. […]
50 μL of the MTT stock solution (5 mg MTT dissolved in 1 ml of sterile PBS) was added to each well, and 50 μL of the MTT stock solution was added to 500 μL of medium alone and used as a negative control. […] Aliquots (450 μl) from each sample were taken to a new well of 48-well culture plate, adding […], DMSO, mixing thoroughly using the pipette and reacted at 37° C. for 20 min and absorbance was measured at 570 nm.
The effects of the TN-GL-01 composition of example 1.1 on ovarian cancer cells (i.e., ES-2 cells) were evaluated by MTT assay in accordance with procedures described in the “Material and Methods” section.

myeloma ARH-77 cells = assay: MTT assay of myeloma ARH-77 cells treated with chemotherapeutic drugs alone or combined; details: for IC50: ARH-77 cells, chemotherapeutic agent alone (control)
Method: Ovarian cancer cell ES-2 and myeloma cell line ARH-77 were used in the present disclosure. Cells was cultured and maintained in Dulbecco's modified Eagle media (DMEM) supplemented with 10% fetal bovine serum (FBS), 100 IU/ml penicillin, […] streptomycin, 2 mM glutamine, non-essential amino acids and sodium pyruvate in 5% CO2 at 37° C. Cells were grown and maintained in Petri dishes (each was 10 cm in diameter) until they reached 80% confluence, and then were subject to cell passages. Briefly, cells were first washed with phosphate buffer solution (PBS, 3 ml) once, then treated with 0.05% Trypsin/0.025% EDTA solution (1 mL) for 5 min so that the attached cells become suspended. The suspended cells were harvested and 2 mL fresh culture media were added therein to neutralize any remaining activity of trypsin. Cell density was adjusted by adding appropriate amounts of culture medium to the cell suspension, which was then used to seed the culture plates. The plates were then returned to the incubator, and cultured in accordance with the steps described above.
Cells were seeded in 96-well plates with a density of 3,000 cells/well and cultured in accordance with the procedures described above. On the day when cell activity analysis was to be conducted, cells were first treated with various concentrations of the triterpenoids of the present disclosure, imatinib or gefitinib for at least 48 hrs, before subjecting them to MTT assay.
50 μL of the MTT stock solution (5 mg MTT dissolved in 1 ml of sterile PBS) was added to each well, and 50 μL of the MTT stock solution was added to 500 μL of medium alone and used as a negative control. Each sample was incubated at 37° C. for 4 hours. Aliquots (450 μl) from each sample were taken to a new well of 48-well culture plate, adding […], DMSO, mixing thoroughly using the pipette and reacted at 37° C. for 20 min and absorbance was measured at 570 nm.
Results are summarized in Tables 1 to 3, and FIGS. 3 and 4.
If no significance existed between the expected and observed values, the effect is termed“additivity (p>0.05)”. […] The expected value was determined by multiplying the survival rate of each drug in specific dose. The obtained value and value of each survival rate were measured by MMT assay (FIG. 3 and FIG. 4).

CC(=O)O[C@@H](C/C=C(\C)C(=O)O)[C@@H](C)[C@H]1C[C@H](OC(C)=O)[C@@]2(C)C3=CC[C@H]4C(C)(C)[C@H](OC(C)=O)CC[C@]4(C)C3=CC[C@]12C [GAT, ganoderic acid T]
expression of galectin-1 (galectin-1): effective in suppressing the expression of galectin-1 | 50% inhibition of ES-2 cells (IC50) [1]: 24.5 µg/mL

C/C(=C/CC[C@@H](C)[C@H]1CC[C@@]2(C)C3=CC[C@H]4C(C)(C)C(=O)CC[C@]4(C)C3=CC[C@]12C)C(=O)O [GAS, ganoderic acid S]
expression of galectin-1 (galectin-1): effective in suppressing the expression of galectin-1 | 50% inhibition of ES-2 cells (IC50) [1]: 58.3 µg/mL

COc1cccc2c1C(=O)c1c(O)c3c(c(O)c1C2=O)C[C@@](O)(C(=O)CO)C[C@@H]3O[C@H]1C[C@H](N)[C@H](O)[C@H](C)O1 [Doxorubicin, doxorubicin]
Cell survival rate of the single drug (myeloma ARH-77 cells; ARH-77, Table 2, Doxorubicin 100 nM alone): 0.58 | Cell survival rate of the single drug (myeloma ARH-77 cells; ARH-77, Table 3, Doxorubicin 250 nM alone): 0.66 | Cell survival rate of the single drug (myeloma ARH-77 cells; ARH-77, Table 3, Doxorubicin 500 nM alone): 0.66 | IC50 (myeloma ARH-77 cells; Homo sapiens): 99 nM

COc1cc([C@@H]2c3cc4c(cc3[C@@H](O[C@@H]3O[C@@H]5CO[C@@H](C)O[C@H]5[C@H](O)[C@H]3O)[C@H]3COC(=O)[C@H]23)OCO4)cc(OC)c1O [Etoposide, etoposide]
IC50 (myeloma ARH-77 cells): 415 nM

CC(=O)O[C@H]1C(=O)[C@@]2(C)[C@H]([C@H](OC(=O)c3ccccc3)[C@]3(O)C[C@H](OC(=O)[C@H](O)[C@@H](NC(=O)c4ccccc4)c4ccccc4)C(C)=C1C3(C)C)[C@]1(OC(C)=O)CO[C@@H]1C[C@@H]2O [Paclitaxel, paclitaxel]
Cell survival rate of the single drug (myeloma ARH-77 cells; ARH-77, Table 2, Paclitaxel 62.5 nM alone): 0.68 | Cell survival rate of the single drug (myeloma ARH-77 cells; ARH-77, Table 2, Paclitaxel 125 nM alone): 0.50 | Cell survival rate of the single drug (myeloma ARH-77 cells; ARH-77, Table 3, Paclitaxel 40 μM alone): 0.65

N.N.[Cl][Pt][Cl] [Cisplatin, cisplatin]
Cell survival rate of the single drug (myeloma ARH-77 cells; ARH-77, Table 2, Cisplatin 3 μM alone): 0.65 | Cell survival rate of the single drug (myeloma ARH-77 cells; ARH-77, Table 3, Cisplatin 3 μM alone): 0.69
